According to patent US9434763B2, “Derivatives of pyridinone as inhibitors for tissue transglutaminase” (ZEDIRA GMBH, priority 2012, dated 2016):
pIC50: −log10 of the molar value.

Columns and labels:
TG3 (transglutaminase 3) = target: T1, TG3 (transglutaminase 3) (Homo sapiens, UniProt Q08188); assay: Comparative transglutaminase selectivity assay with casein and dansylcadaverine as substrates: TG3; type: biochemical; conditions: casein as substrate
T1 construct: purchased Zedira T012
T1 sequence (Q08188 1-693): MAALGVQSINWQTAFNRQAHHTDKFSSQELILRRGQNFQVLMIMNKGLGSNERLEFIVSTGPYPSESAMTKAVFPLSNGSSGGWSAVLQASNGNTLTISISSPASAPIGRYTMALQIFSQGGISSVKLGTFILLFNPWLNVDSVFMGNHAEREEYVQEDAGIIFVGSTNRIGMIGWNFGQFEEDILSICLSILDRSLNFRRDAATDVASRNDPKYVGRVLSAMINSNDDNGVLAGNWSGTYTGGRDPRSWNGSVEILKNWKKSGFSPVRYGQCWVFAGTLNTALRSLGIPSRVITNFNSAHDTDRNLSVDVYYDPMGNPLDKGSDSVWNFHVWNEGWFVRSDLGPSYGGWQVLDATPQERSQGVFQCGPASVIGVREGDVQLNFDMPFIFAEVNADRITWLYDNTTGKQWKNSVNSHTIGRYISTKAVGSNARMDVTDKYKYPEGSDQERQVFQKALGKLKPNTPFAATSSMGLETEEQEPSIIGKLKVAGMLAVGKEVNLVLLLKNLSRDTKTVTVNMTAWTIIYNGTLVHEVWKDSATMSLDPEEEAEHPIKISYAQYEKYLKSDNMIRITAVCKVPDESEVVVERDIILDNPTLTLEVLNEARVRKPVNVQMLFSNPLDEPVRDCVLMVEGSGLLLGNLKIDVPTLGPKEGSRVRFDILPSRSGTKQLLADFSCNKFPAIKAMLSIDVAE
Source text: (§1) The comparative determination of different transglutaminases to determine the selectivity was made with casein and dansylcadaverine as substrates. Therefore, the kit T036 (Zedira, Darmstadt; Refs: Lorand et al, Anal Biochem, 1971, 44:221-31) as well as transglutaminase products T009 (transglutaminase 1), T012 (transglutaminase 3), T021 (transglutaminase 6) and T027 (plasma transglutaminase, factor XIII) are used. Therefore, two different IC50 values for the compounds are given.
(§2) The evaluation of the resulting enzyme activity is done using the slope of the straight line obtained by the increase in fluorescence.
(§3) To determine the non-inhibited enzyme activity, DMSO instead of inhibitor stock solution is used. IC50 values are determined by plotting the resulting enzyme activity against the logarithm of the inhibitor concentration. IC50 is defined as the concentration of inhibitor resulting in 50% of enzyme activity.
(§4) It should be noted that it was measured here against casein as substrate, which is why other apparent inhibition values (IC50 value) result.

[1] = target: T2, FXIII (plasma transglutaminase, factor XIII) (Homo sapiens, UniProt P00488); assay: Comparative transglutaminase selectivity assay with casein and dansylcadaverine as substrates: FXIII; type: biochemical; conditions: casein as substrate
T2 construct: purchased Zedira T027
T2 sequence (P00488 1-732): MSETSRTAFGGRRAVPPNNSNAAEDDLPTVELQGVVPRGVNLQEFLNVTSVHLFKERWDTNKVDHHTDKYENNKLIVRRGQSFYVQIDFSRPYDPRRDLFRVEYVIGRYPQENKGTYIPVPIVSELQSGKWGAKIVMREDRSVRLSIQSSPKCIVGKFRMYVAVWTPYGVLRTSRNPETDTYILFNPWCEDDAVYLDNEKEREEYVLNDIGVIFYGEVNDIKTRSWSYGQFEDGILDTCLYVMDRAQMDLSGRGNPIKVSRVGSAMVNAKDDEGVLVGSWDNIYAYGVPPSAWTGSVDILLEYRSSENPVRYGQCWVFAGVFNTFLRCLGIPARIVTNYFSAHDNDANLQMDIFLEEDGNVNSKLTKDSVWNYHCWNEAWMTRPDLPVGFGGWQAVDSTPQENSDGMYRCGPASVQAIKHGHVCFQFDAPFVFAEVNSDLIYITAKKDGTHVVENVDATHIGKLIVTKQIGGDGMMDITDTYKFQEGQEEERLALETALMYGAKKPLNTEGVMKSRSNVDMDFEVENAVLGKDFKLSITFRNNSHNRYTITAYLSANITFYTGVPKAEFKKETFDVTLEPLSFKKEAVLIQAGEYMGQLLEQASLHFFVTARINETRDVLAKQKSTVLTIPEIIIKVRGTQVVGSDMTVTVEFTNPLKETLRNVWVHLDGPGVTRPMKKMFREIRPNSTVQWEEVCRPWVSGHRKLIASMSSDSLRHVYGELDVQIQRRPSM
Source text: as §1, §2, §3, §4

Structure (SMILES)	pIC50 (TG3 (transglutaminase 3))	pIC50 [1]
CCOC(=O)/C=C/CC[C@H](NC(C)=O)C(=O)Nc1cccn(CC(=O)NCCC(C)C)c1=O [A7, (S,E)-Ethyl 6-acetamido-7-(1-(2-(isopentylamino)-2-oxoethyl)-2-oxo-1,2-dihydropyridin-3-ylamino)-7-oxohept-2-enoate]	4.08	3.98
CCOC(=O)/C=C/CC[C@H](NC(=O)c1cncn1C)C(=O)Nc1cccn(CC(=O)NCCC(C)C)c1=O [A19, (S,E)-Ethyl 7-(1-(2-(isopentylamino)-2-oxoethyl)-2-oxo-1,2-dihydropyridin-3-ylamino)-6-(1-methyl-1H-imidazole-5-carboxamido)-7-oxohept-2-enoate]	3.89	4.09
CCOC(=O)/C=C/CC[C@H](NC(=O)CCC(=O)O)C(=O)Nc1cccn(CC(=O)NCCC(C)C)c1=O [A24, (S,E)-4-(7-Ethoxy-1-(1-(2-(isopentylamino)-2-oxoethyl)-2-oxo-1,2-dihydropyridin-3-ylamino)-1,7-dioxohept-5-en-2-ylamino)-4-oxobutanoic acid]	3.92	3.88
CCOC(=O)/C=C/CC[C@H](NC(C)=O)C(=O)Nc1cccn(CC(=O)N[C@H](C(=O)OC)[C@H](C)CC)c1=O [A35, (S,E)-ethyl 6-acetamido-7-(1-(2-((2S,3R)-1-methoxy-3-methyl-1-oxopentan-2-ylamino)-2-oxoethyl)-2-oxo-1,2-dihydropyridin-3-ylamino)-7-oxohept-2-enoate]	4.02	4.15
CCOC(=O)/C=C/CC[C@H](NC(C)=O)C(=O)Nc1cccn(CC(=O)NCCC(CC)CC)c1=O [A42, (S,E)-ethyl 6-acetamido-7-(1-(2-(3-ethylpentylamino)-2-oxoethyl)-2-oxo-1,2-dihydropyridin-3-ylamino)-7-oxohept-2-enoate]	3.98	3.96
CCOC(=O)/C=C/CC[C@H](NC(=O)c1cncn1C)C(=O)Nc1cccn(CC(=O)NCC(CC)CC)c1=O [A58, (S,E)-Ethyl 7-(1-(2-(2-ethylbutylamino)-2-oxoethyl)-2-oxo-1,2-dihydropyridin-3-ylamino)-6-(1-methyl-1H-imidazole-5-carboxamido)-7-oxohept-2-enoate]	3.96	3.92
CCOC(=O)/C=C/CC[C@H](NC(C)=O)C(=O)Nc1cccn(CC(=O)NCC(CC)CC)c1=O [A62, (S,E)-Ethyl 6-acetamido-7-(1-(2-(2-ethylbutylamino)-2-oxoethyl)-2-oxo-1,2-dihydropyridin-3-ylamino)-7-oxohept-2-enoate]	4.00	3.91
CCC(CC)CNC(=O)Cn1cccc(NC(=O)[C@H](CC/C=C/C(=O)OC)NC(=O)c2cncn2C)c1=O [A63, (S,E)-Methyl 7-(1-(2-(2-ethylbutylamino)-2-oxoethyl)-2-oxo-1,2-dihydropyridin-3-ylamino)-6-(1-methyl-1H-imidazole-5-carboxamido)-7-oxohept-2-enoate]	4.13	4.05
COC(=O)/C=C/CC[C@H](NC(C)=O)C(=O)Nc1cccn(CC(=O)N2CCCC(C)C2)c1=O (stereo partly drawn) [A64, (6S,E)-Methyl 6-acetamido-7-(1-(2-(3-methylpipendin-1-yl)-2-oxoethyl)-2-oxo-1,2-dihydropyridin-3-ylamino)-7-oxohept-2-enoate]	3.90	3.92
COC(=O)/C=C/CC[C@H](NC(C)=O)C(=O)Nc1cccn(CC(=O)N2CCC(C(F)(F)F)CC2)c1=O [A65, (S,E)-Methyl 6-acetamido-7-oxo-7-(2-oxo-1-(2-oxo-2-(4-(trifluoromethyl)piperidin-1-yl)ethyl)-1,2-dihydropyridin-3-ylamino)hept-2-enoate]	4.00	3.81

The next lines start with the values.

pIC50 (TG3 (transglutaminase 3))	pIC50 [1]	Structure (SMILES)
4.15	4.17	COC(=O)/C=C/CC[C@H](NC(C)=O)C(=O)Nc1cccn(CC(=O)NCCC(C)C)c1=O [A29, (S,E)-methyl 6-acetamido-7-(1-(2-(isopentylamino)-2-oxoethyl)-2-oxo-1,2-dihydropyridin-3-ylamino)-7-oxohept-2-enoate]
4.16	4.04	CCOC(=O)/C=C/CC[C@H](NC(=O)CCC(=O)O)C(=O)Nc1cccn(CC(=O)NCC(CC)CC)c1=O [A30, (S,E)-4-(7-Ethoxy-1-(1-(2-(2-ethylbutylamino)-2-oxoethyl)-2-oxo-1,2-dihydropyridin-3-ylamino)-1,7-dioxohept-5-en-2-ylamino)-4-oxobutanoic acid]
4.14	4.11	CCOC(=O)/C=C/CC[C@H](NC(=O)c1cncn1C)C(=O)Nc1cccn(CC(=O)N[C@H](C(=O)O)[C@H](C)CC)c1=O [A53, (2S,3R)-2-(2-(3-((S,E)-7-Ethoxy-2-(1-methyl-1H-imidazole-5-carboxamido)-7-oxohept-5-enamido)-2-oxopyridin-1(2H)-yl)acetamido)-3-methylpentanoic acid]
4.39	4.10	CCOC(=O)/C=C/CC[C@H](NC(=O)c1ccccc1)C(=O)Nc1cccn(CC(=O)N[C@H](C(=O)O)[C@H](C)CC)c1=O [A59, (2S,3R)-2-(2-(3-((S,E)-2-Benzamido-7-ethoxy-7-oxohept-5-enamido)-2-oxopyridin-1(2H)-yl)acetamido)-3-methylpentanoic acid]
4.37	4.14	CC[C@@H](C)[C@H](NC(=O)Cn1cccc(NC(=O)[C@H](CC/C=C/C(=O)OC)NC(=O)c2cncn2C)c1=O)C(=O)O [A60, (2S,3R)-2-(2-(3-((S,E)-7-Methoxy-2-(1-methyl-1H-imidazole-5-carboxamido)-7-oxohept-5-enamido)-2-oxopyridin-1(2H)-yl)acetamido)-3-methylpentanoic acid]
4.75	4.20	CC[C@@H](C)[C@H](NC(=O)Cn1cccc(NC(=O)[C@H](CC/C=C/C(=O)OC)NC(=O)c2ccccc2)c1=O)C(=O)O [A61, (2S,3R)-2-(2-(3-((S,E)-2-benzamido-7-methoxy-7-oxohept-5-enamido)-2-oxopyridin-1(2H)-yl)acetamido)-3-methylpentanoic acid]
4.22	4.11	CCC(CC)CNC(=O)Cn1cccc(NC(=O)[C@H](CC/C=C/C(=O)OC)NC(C)=O)c1=O [A79, (S,E)-Methyl 6-acetamido-7-(1-(2-(2-ethylbutylamino)-2-oxoethyl)-2-oxo-1,2-dihydropyridin-3-ylamino)-7-oxohept-2-enoate]
